Measured values published in patent publication US20250255847A1, “[…]s: Novel Drugs for Triple Negative Breast Cancer” (SIMMARON RSEARCH INC, priority 2024, published 2025).

Target: T1, Y705P STAT3 and S727P STAT3 (Homo sapiens, UniProt P40763)
T1 construct: tissue Jackson Laboratories TM00096; host or cells: patient-derived TNBC tumour in NOD.Cg-Prkdcscid Il2rgtm1Wjl/SzJ mice
Assay: IHC and immunoblot of phospho-STAT3 in PDX tumors
Format: in vivo, mouse
Conditions: tumor tissue; for expression of Y705PSTAT3 (IHC): p<0.0001 versus vehicle
Experimental: FIG. 15 illustrates an embodiment of the present invention and illustrates SIM 1 and 2 inhibited Y705P phosphorylation of STAT3 and the expressions of STAT3-dependent tumor supportive genes. (A) DAB immunostaining of Y705P STAT3 in tumor parenchyma of all three groups. (B) Quantitative analysis of Y705P STAT3-ir cells was performed by counting Y705P STAT3 cells in 15 different images, converting into a percent scale, and then plotting in a scatter histogram. On-way ANOVA followed by multiple comparison test indicated ****p<0.0001 versus control. (C) DAB immunostaining of S727P STAT3 followed by a (D) quantitative analysis of S727P STAT3-ir cells was performed in 15 different images and then plotted as a percent of total cells by a scatter histogram. On-way ANOVA represents no significance (NS) between groups. (E) Immunoblot analyses of Y705PSTAT3 (Rabbit […] antibody Cat #710093; Invitrogen), S727PSTAT3 (Mouse 1° antibody cat #MA5-15208; Invitrogen) followed by normalization with loading control β-actin (Mouse 1° antibody cat #MA1-744; Invitrogen). (F) A cDNA-based gene array of 66 STAT3-dependent tumor promoting genes were analyzed in TNBC tumors of vehicle-, SIM-1-, and SIM-2-treated mice. (G) A scatter plot summarized the gene array results. Based on the relative levels of expressions, gene levels were classified as low, moderate, and highly expressed. Results are confirmed after three different experiments.
Immunoblot assay. Immunoblot assay was performed as described before. Briefly, cell lysates were mixed with 5× Lamelli buffer, electrophoresed in 4-12% Tris-Glycine gel in tris-glycine SDS running buffer, transferred in a nitrocellulose membrane (P/N 926-31090; Li-Cor Biosciences, Lincoln, NE) in tris-glycine transfer buffer, incubated with appropriate primary antibodies overnight under shaking condition, labeled with IRDye700 and 800-tagged secondary antibodies for 2 hrs at room temperature in an orbital shaker, and then imaged in Odyssey Sa imager at 200 μm resolution.
Immunohistochemical (IHC) analyses. Tumor tissues were embedded in paraffin, cut at a thickness of 5 μm in Leica microtome, attached to a charged slide, dried in a dry bath at 37° C. for at least 48 hrs., and then progressed for IHC analysis. The IHC analysis was performed where, briefly, sections were deparaffinized by xylene and rehydrated by ethanol gradient (100%>70%>50%>20%; v/v) followed by complete rehydration by water. After that sections were blocked by Intercept® (TBS) Blocking Buffer (Licor Biosciences, Lincoln, NE) for 30 minutes, incubated with primary (1°) antibodies (Refer to Table 1) overnight at 4° C., washed with 1×TBST wash buffer for 3 times, incubated with biotinylated anti-mouse (1:200 dilution) or anti-rabbit (1:200 dilution) secondary (2°) antibodies (ThermoFisher), for 2 hrs., reacted with VECTASTAIN® Elite® ABC-HRP Kit, Peroxidase (Cat #PK-6100; Vector Laboratories) for 1 hr. as per manufacturer's recommendation, and finally stained with DAB chromogenic solution (Cat #SK-4100; Vector Laboratories).
This example provides a representative experiment that tested if SIM-1 and SIM-2 suppressed the activation of STAT3 in TNBC tumors. […] The result was further corroborated by the quantitative analysis (FIG. 15B), which indicated a significant downregulation of Y705PSTST3-ir cells (One-way ANOVA indicated ****p<0.0001 versus vehicle).
On the contrary, the expression of S727PSTAT3, another active isomer of STAT3, remained very low and unchanged across the treatment groups (FIG. 15C).
These genes include anti-apoptotic genes such as bcl-2, survivin, and bcl-xl; cell cycle progression markers such as cyclin D1, akt, and p21.

T1 sequence (P40763 2-770 Y705P/S727P limits assumed): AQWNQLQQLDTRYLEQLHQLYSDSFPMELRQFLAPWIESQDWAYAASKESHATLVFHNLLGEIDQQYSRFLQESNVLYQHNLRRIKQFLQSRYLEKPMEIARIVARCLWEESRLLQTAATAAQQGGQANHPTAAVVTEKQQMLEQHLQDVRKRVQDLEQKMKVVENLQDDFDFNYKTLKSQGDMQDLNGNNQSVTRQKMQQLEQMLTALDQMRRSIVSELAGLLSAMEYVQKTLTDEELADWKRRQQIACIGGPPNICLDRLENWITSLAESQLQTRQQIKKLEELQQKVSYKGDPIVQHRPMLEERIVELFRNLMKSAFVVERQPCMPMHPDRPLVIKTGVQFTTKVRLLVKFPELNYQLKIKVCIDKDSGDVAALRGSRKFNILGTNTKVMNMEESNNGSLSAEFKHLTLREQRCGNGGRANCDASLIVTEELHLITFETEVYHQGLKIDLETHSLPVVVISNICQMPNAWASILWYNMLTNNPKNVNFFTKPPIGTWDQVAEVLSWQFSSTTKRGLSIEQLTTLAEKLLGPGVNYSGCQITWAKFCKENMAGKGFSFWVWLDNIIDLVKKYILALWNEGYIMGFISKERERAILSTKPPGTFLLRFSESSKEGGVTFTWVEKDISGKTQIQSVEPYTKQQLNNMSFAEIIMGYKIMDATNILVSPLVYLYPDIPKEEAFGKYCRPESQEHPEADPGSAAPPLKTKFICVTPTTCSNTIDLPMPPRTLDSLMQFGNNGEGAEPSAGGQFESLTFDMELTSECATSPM

Structure (SMILES) | S727P STAT3 expressions (IHC) | Y705 phosphorylation of STAT3 (immunoblot) | expression of Y705PSTAT3 (IHC)
CCOC(=O)c1c(NC(C)=O)sc2c(Cl)c(/C=N/O)ccc12 [SIM-2, ethyl 2-acetamido-7-chloro-6-(hydroxyiminomethyl)-1-benzothiophene-3-carboxylate] | did not show any change | strongly and selectively suppressed | completely ameliorated
O=C(O)CCC(=O)NCc1csc2ccc(Cl)cc12 [SIM-1, 4-[(5-chloro-1-benzothiophen-3-yl)methylamino]-4-oxobutanoic acid] | did not show any change | strongly and selectively suppressed | significantly suppressed
